Measurements published in patent US8476197B2, “Aminopropenoates as fungicides” (priority 2009, dated 2013).
Marks after values point to notes of the source that are not given here.

details: pH 2.3

Row | Compound | Log P
1 | CCOC(=O)C(C#N)=C(Nc1ccccc1OC(F)(F)F)c1cccnc1Cl [Compound 529] | 3.52
2 | COC(=O)C(C#N)=C(NCC(N)=O)c1cccnc1Cl [Compound 569] | 1.14
3 | COC(=O)C(C#N)=C(NC(CO)C(N)=O)c1cccnc1Cl (stereo not drawn) [Compound 570] | 0.97
4 | CCOC(=O)C(C#N)=C(NC(C)CSC)c1cccnc1C (stereo not drawn) [Compound 648] | 2.2

same assay, conditions: pH 2.7

Row | Compound | Log P
5 | CCOC(=O)C(C#N)=C(NC1(c2c(F)cccc2F)CC1)c1sc(Cl)nc1Cl [Compound 528] | 4.14^[a]
6 | CCOC(=O)C(C#N)=C(NC1(c2c(F)cccc2F)CC1)c1cn(C)nc1C(F)(F)F [Compound 530] | 3.48^[a]
7 | CCOC(=O)C(C#N)=C(Nc1ccc(OC(F)F)cc1)c1ccsc1Br [Compound 532] | 3.73^[a]
8 | CCOC(=O)C(C#N)=C(Nc1ccc2ncsc2c1)c1ccsc1Br [Compound 533] | 3.11^[a]
9 | CCOC(=O)C(C#N)=C(Nc1ccc(Cl)cc1)c1ccsc1Br [Compound 534] | 4.11^[a]
10 | CCOC(=O)C(C#N)=C(NCc1ccccc1SC)c1ccsc1Br [Compound 535] | 4.01^[a]
11 | CCOC(=O)C(C#N)=C(Nc1ccc(C(C)C)cc1)c1ccsc1Br [Compound 536] | 4.78^[a]
12 | CCOC(=O)C(C#N)=C(Nc1cccc(SC)c1)c1ccsc1Br [Compound 537] | 4.04^[a]
13 | CCOC(=O)C(C#N)=C(Nc1cccc(Cl)c1)c1ccsc1Br [Compound 539] | 4.09^[a]
14 | CCOC(=O)C(C#N)=C(Nc1ccc(N(C)C)cc1)c1ccsc1Br [Compound 540] | 3.76^[a]
15 | CCOC(=O)C(C#N)=C(NC1(c2c(F)cccc2F)CC1)c1cccnc1Cl [Compound 543] | 3.39^[a]
16 | CCOC(=O)C(C#N)=C(NC1(c2c(F)cccc2F)CC1)c1cn(C)cc1C(F)(F)F [Compound 547] | 3.85^[a]
17 | CCOC(=O)C(C#N)=C(Nc1ccccc1SC)c1cn(C)cc1C(F)(F)F [Compound 548] | 3.73^[a]
18 | CCOC(=O)C(C#N)=C(NC(C)(C)c1ccccc1)c1cn(C)nc1C(F)F [Compound 551] | 3.33^[a]
19 | CCOC(=O)C(C#N)=C(NCc1ccc(Cl)cc1)c1cn(C)nc1C(F)F [Compound 555] | 3.31^[a]
20 | CCOC(=O)C(C#N)=C(NC1(c2c(F)cccc2F)CC1)c1cn(C)nc1C(F)F [Compound 559] | 3.17^[a]
21 | CCOC(=O)C(C#N)=C(NC1(COc2ccccc2)CC1)c1cccnc1Cl [Compound 560] | 3.6^[a]
22 | CCOC(=O)C(C#N)=C(NC1(COc2ccccc2)CC1)c1cn(C)nc1C(F)F [Compound 561] | 3.37^[a]
23 | CCOC(=O)C(C#N)=C(NC(C)CN(C)C)c1conc1C (stereo not drawn) [Compound 594] | 0.76^[a]
24 | CCOC(=O)C(C#N)=C(NC(C)C(N)=O)c1conc1C (stereo not drawn) [Compound 596] | 1.41^[a]
25 | COC(=O)C(C#N)=C(NC(C)C(N)=O)c1cn(C)nc1C(F)F (stereo not drawn) [Compound 598] | 1.3^[a]
26 | CCOC(=O)C(C#N)=C(NC(C)C(=O)NC)c1cn(C)nc1C(F)F (stereo not drawn) [Compound 599] | 1.66^[a]
27 | CNC(=O)C(C)NC(=C(C#N)C(=O)OC)c1cn(C)nc1C(F)F (stereo not drawn) [Compound 601] | 1.38^[a]
28 | CCOC(=O)C(C#N)=C(NC(C)CN(C)C)c1cn(C)nc1C(F)(F)F (stereo not drawn) [Compound 602] | 1.36^[a]

Row | Compound | Log P
29 | CCOC(=O)C(C#N)=C(NCC(C)N)c1c(C)nn(C)c1Cl (stereo not drawn) [Compound 603] | 0.96^[a]
30 | CCOC(=O)C(C#N)=C(NC(C)CN(C)C)c1c(C)nn(C)c1Cl (stereo not drawn) [Compound 605] | 1.13^[a]
31 | CCOC(=O)C(C#N)=C(NC(C)C(=O)NC)c1c(C)nn(C)c1Cl (stereo not drawn) [Compound 606] | 1.7^[a]
32 | CCOC(=O)C(C#N)=C(NC(C)C(N)=O)c1c(C)nn(C)c1Cl (stereo not drawn) [Compound 607] | 1.58^[a]
33 | CCOC(=O)C(C#N)=C(NC(C)CN(C)C)c1sccc1C(F)(F)F (stereo not drawn) [Compound 608] | 1.63^[a]
34 | CCOC(=O)C(C#N)=C(NCC(C)N)c1sccc1C(F)(F)F (stereo not drawn) [Compound 609] | 1.42^[a]
35 | CCOC(=O)C(C#N)=C(NC(C)C(N)=O)c1sccc1C(F)(F)F (stereo not drawn) [Compound 610] | 2.07^[a]
36 | CCOC(=O)C(C#N)=C(NC(C)C(N)=O)c1sccc1Br (stereo not drawn) [Compound 611] | 1.9^[a]
37 | CCOC(=O)C(C#N)=C(NC(C)C(=O)NC)c1sccc1Br (stereo not drawn) [Compound 612] | 2.07^[a]
38 | CCOC(=O)C(C#N)=C(NC(C)CN(C)C)c1ccsc1Br (stereo not drawn) [Compound 613] | 1.44^[a]
39 | CCOCC(C)NC(=C(C#N)C(=O)OCC)c1cc(C)oc1C (stereo not drawn) [Compound 617] | 3.42^[a]
40 | CCOC(=O)C(C#N)=C(NC1(C(=O)OC(C)CC)CC1)c1cc(C)oc1C (stereo not drawn) [Compound 618] | 3.94^[a]
41 | CCOC(=O)C(C#N)=C(NC(C)(C)CSC)c1cc(C)oc1C [Compound 619] | 3.58^[a]
42 | COC(=O)CC(C)NC(=C(C#N)C(=O)OC)c1cccnc1Cl (stereo not drawn) [Compound 620] | 2.11^[a]
43 | CCC(C)OC(=O)C1(NC(=C(C#N)C(=O)OC)c2cccnc2Cl)CC1 (stereo not drawn) [Compound 621] | 2.23^[a]
44 | CCN(CC)CC(C)NC(=C(C#N)C(=O)OC)c1cccnc1Cl (stereo not drawn) [Compound 622] | 0.86^[a]
45 | CCOC(=O)C1(NC(=C(C#N)C(=O)OC)c2cccnc2Cl)CC1 [Compound 623] | 1.66^[a]
46 | CCOCC(C)NC(=C(C#N)C(=O)OC)c1cccnc1Cl (stereo not drawn) [Compound 624] | 2.42^[a]
47 | CCOCC(CC)NC(=C(C#N)C(=O)OC)c1cccnc1Cl (stereo not drawn) [Compound 625] | 2.76^[a]
48 | CCCC(COCC)NC(=C(C#N)C(=O)OC)c1cccnc1Cl (stereo not drawn) [Compound 626] | 3.15^[a]
49 | CCOCC(NC(=C(C#N)C(=O)OC)c1cccnc1Cl)C(C)C (stereo not drawn) [Compound 627] | 3.11^[a]
50 | CCOC(=O)C(C#N)=C(NC(C)C(N)=O)c1ccsc1Br (stereo not drawn) [Compound 628] | 1.9^[a]
51 | CCOC(=O)C(C#N)=C(NC(C)C(=O)NC)c1conc1C (stereo not drawn) [Compound 629] | 1.57^[a]
52 | COC(=O)C(C#N)=C(NC(C)CN(C)C)c1sc(C)nc1C(F)(F)F (stereo not drawn) [Compound 630] | 1.17^[a]

Row | Compound | Log P
53 | COC(=O)/C(C#N)=C(\NCC(C)N)c1sc(C)nc1C(F)(F)F (stereo not drawn) [Compound 631] | 0.94^[a]
54 | CCOC(=O)C(C#N)=C(NC(C)CN)c1cn(C)nc1C(F)(F)F (stereo not drawn) [Compound 632] | 1.11^[a]
55 | COC(=O)C(C#N)=C(NC(C)C(N)=O)c1sc(C)nc1C(F)(F)F (stereo not drawn) [Compound 634] | 1.69^[a]
56 | CCOC(=O)C(C#N)=C(NC(C)C(N)=O)c1cn(C)nc1C(F)(F)F (stereo not drawn) [Compound 635] | 1.78^[a]
57 | CCOC(=O)C(C#N)=C(NC(C)C(=O)NC)c1cn(C)nc1C(F)(F)F (stereo not drawn) [Compound 636] | 1.95^[a]
58 | CCOC(=O)C(C#N)=C(NC(C)C(=O)NC)c1ccsc1Br (stereo not drawn) [Compound 637] | 2.05^[a]
59 | CNC(=O)C(C)NC(=C(C#N)C(=O)OC)c1sc(C)nc1C(F)(F)F (stereo not drawn) [Compound 638] | 1.93^[a]
60 | CCOC(=O)C(C#N)=C(NC(C)C(=O)NC)c1sccc1C(F)(F)F (stereo not drawn) [Compound 639] | 2.25^[a]
61 | CCOC(=O)C(C#N)=C(NC(C)CN(C)C)c1sc(C)nc1C(F)(F)F (stereo not drawn) [Compound 640] | 1.35^[a]
62 | CCOC(=O)C(C#N)=C(NC(C)C(N)=O)c1sc(C)nc1C(F)(F)F (stereo not drawn) [Compound 641] | 1.96^[a]
63 | CCOC(=O)C(C#N)=C(NC(C)C(=O)NC)c1sc(C)nc1C(F)(F)F (stereo not drawn) [Compound 642] | 2.07^[a]
64 | CCOC(=O)/C(C#N)=C(\NCC(C)N)c1sc(C)nc1C(F)(F)F (stereo not drawn) [Compound 643] | 1.11^[a]
65 | CCOC(=O)C(C#N)=C(NC(C)C(N)=O)c1sccc1Cl (stereo not drawn) [Compound 644] | 1.9^[a]
66 | CCOC(=O)C(C#N)=C(NC(C)C(=O)NC)c1sccc1Cl (stereo not drawn) [Compound 645] | 2.08^[a]
67 | CCOC(=O)C(C#N)=C(NC(C)C(=O)NC)c1ccsc1I (stereo not drawn) [Compound 646] | 2.07^[a]
68 | CCOC(=O)C(C#N)=C(NC(C)C(N)=O)c1ccsc1I (stereo not drawn) [Compound 647] | 1.91^[a]
69 | CCOC(=O)C(C#N)=C(NC(C)C(=O)OC)c1sccc1Br (stereo not drawn) [Compound 649] | 2.96^[a]
70 | CCOC(=O)C(C#N)=C(NC(C(=O)OC)C(C)C)c1sccc1Br (stereo not drawn) [Compound 650] | 3.67^[a]
71 | CCOC(=O)C(C#N)=C(NC(C)C(N)=O)c1sccc1Br (stereo not drawn) [Compound 652] | 1.94^[a]
72 | CCOC(=O)C(C#N)=C(NC(C)C(=O)OC)c1sccc1C(F)(F)F (stereo not drawn) [Compound 657] | 3.11^[a]
73 | CCOC(=O)C(C#N)=C(NC(C(=O)OC)C(C)C)c1sccc1C(F)(F)F (stereo not drawn) [Compound 659] | 3.62^[a]
74 | COC(=O)C(C#N)=C(NC(C)C(=O)OC)c1sc(C)nc1C(F)(F)F (stereo not drawn) [Compound 665] | 2.62^[a]
75 | COC(=O)C(C#N)=C(NC(C(=O)OC)C(C)C)c1sc(C)nc1C(F)(F)F (stereo not drawn) [Compound 667] | 3.29^[a]
76 | CCOC(=O)C(C#N)=C(NC(C)C(=O)OC)c1cn(C)nc1C(F)F (stereo not drawn) [Compound 673] | 2.31^[a]

same assay, conditions: pH 7.5

Row | Compound | Log P
77 | CCOC(=O)C(C#N)=C(Nc1ccccc1OC(F)(F)F)c1cccnc1Cl [Compound 529] | 3.46
78 | COC(=O)C(C#N)=C(NC(C)C(N)=O)c1cccnc1Cl (stereo not drawn) [Compound 563] | 1.18
79 | COC(=O)C(C#N)=C(NCC(N)=O)c1cccnc1Cl [Compound 569] | 0.94
80 | COC(=O)C(C#N)=C(NC(CO)C(N)=O)c1cccnc1Cl (stereo not drawn) [Compound 570] | 0.79
81 | COC(=O)C(C#N)=C(NC(C(N)=O)C(C)C)c1cccnc1Cl (stereo not drawn) [Compound 572] | 1.58
82 | COC(=O)C(C#N)=C(NC(C)CSC)c1cccnc1Cl (stereo not drawn) [Compound 575] | 2.38
83 | CCSCC(C)NC(=C(C#N)C(=O)OC)c1cccnc1Cl (stereo not drawn) [Compound 577] | 2.72
84 | COC(=O)C(C#N)=C(NC(C(=O)OC)C(C)C)c1cccnc1Cl (stereo not drawn) [Compound 580] | 2.56
85 | COC(=O)C(NC(=C(C#N)C(=O)OCC(F)(F)F)c1cccnc1Cl)C(C)C (stereo not drawn) [Compound 581] | 3.14
86 | CCOC(=O)C(C#N)=C(NC(CC)C(=O)OC)c1cccnc1Cl (stereo not drawn) [Compound 582] | 2.27
87 | CSCC(C)NC(=C(C#N)C(=O)OCC(F)(F)F)c1cccnc1Cl (stereo not drawn) [Compound 585] | 2.98
88 | CCOC(=O)C(C#N)=C(NC(C)CSCC)c1cccnc1Cl (stereo not drawn) [Compound 586] | 3.06
89 | CCOC(=O)C(C#N)=C(NC(C)CSC)c1cccnc1Cl (stereo not drawn) [Compound 593] | 2.71
90 | CCOC(=O)C(C#N)=C(NC(C)CSC)c1cccnc1C (stereo not drawn) [Compound 648] | 2.44
